Non-standard residues stand in square brackets, D forms with d. Residues, ends and D or L forms follow the SMILES beside them. No end group written: not given here. d2Nal = N[C@H](Cc1ccc2ccccc2c1)C(=O)O

Results on three compounds are retold here after patent US7041785B1, “B1-bradykinin receptor antagonists and use thereof” (Université de Sherbrooke, priority 1996, dated 2006).

For data set [1], the target named is T1, B1 receptor (Oryctolagus cuniculus, UniProt P48748).
T1 sequence (P48748 1-352): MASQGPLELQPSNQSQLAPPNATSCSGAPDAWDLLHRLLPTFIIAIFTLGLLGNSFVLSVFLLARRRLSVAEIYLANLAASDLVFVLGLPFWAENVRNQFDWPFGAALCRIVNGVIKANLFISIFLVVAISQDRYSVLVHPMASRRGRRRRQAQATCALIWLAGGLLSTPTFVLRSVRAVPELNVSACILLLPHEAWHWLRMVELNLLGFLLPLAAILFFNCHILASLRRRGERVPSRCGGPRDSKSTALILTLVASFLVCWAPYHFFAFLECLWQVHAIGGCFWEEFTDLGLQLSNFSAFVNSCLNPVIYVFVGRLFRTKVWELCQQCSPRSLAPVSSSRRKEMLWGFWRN
The experiment in a line: cell-based. To be noted: for Rb.A. α^E: residual agonistic activity at 10 μg/mL in comparison with desArg9BK. The text has this:
(§1) Tissues were taken from New Zealand white rabbits (1.5–2.5 kg) and Dunken Hartley guinea pigs (250–350 g) of either sex, killed by stunning and exsanguination. Umbilical cords were taken from healthy women 22–40 years old after spontaneous delivery at term. The rabbit jugular vein (RbJV), the guinea pig ileum (GPI), two preparations containing B2 receptors, the rabbit aorta (RbA) (B1 receptor) and the human umbilical vein (HUV), a mixed preparation containing both B1 and B2 receptors^10, were used. Helical strips of RbJV treated with 1 μmol/L of captopril to avoid peptide degradation by the angiotensin-converting enzyme (ACE), alias kininase II were prepared according to Gaudreau et al.^11 Helical strips of RbA devoid of endothelium were prepared according to Furchgott and Bhadrakom^12. Longitudinal segments of GPI were prepared with the procedure described by Rang^13. Helical strips of HUV were prepared according to Gobeil et al.^10. The tissues were suspended in 10-ml organ baths containing warm (37EC), oxygenated (95% O2–5% CO2) Krebs solution of the following composition in mmol/L; NaCl: 118.1; KCl: 4.7; CaCl26H2O: 2.5; KH2PO4: 1.2; MgSO47H2O: 1.18; NaHCO3: 25.0 and D-Glucose: 5.5. The RbA and the HUV were stretched with an initial tension of 2 g, whereas the RbJV and the GPI were loaded with 0.5 g. Changes of tension produced by the various agents were measured with Grass isometric transducers (model FT 03C, Grass Instrument Co., Quincy, Mass.). […] Before testing the drugs, the tissues were allowed to equilibrate for 60–120 min during which time the tissues were repeatedly washed and the tension readjusted every 15 min.
(§2) At the beginning of each experiment, a submaximal dose of bradykinin (BK) (9 nmol/L), was applied repeatedly on the RbJV, the GPI or the HUV to ensure that tissues responded with stable contractions. […] A similar protocol was used for the HUV.
(§3) Repeated applications of a singl and double concentration of BK (on RbJV, GPI and HUV) and of desArg^9BK (RbA and HUV) were made in the absence and in presence of the various peptides to evaluate their apparent affinities as antagonists, in terms of pA2 (-log10 of the molar concentration of antagonist that reduces the effect of a double concentration of agonist to that of a single one)^14. The antagonists were applied 10 min before measuring the myotropic effects of either BK (the B2 receptor agonist) or desArg^9BK (the B1 receptor agonist). […] All kinin antagonists were initially applied to tissues at concentration of 10 μg/mL to measure their potential agonistic activities (α^E) in comparison with BK (in the B2 receptor preparations) or desArg^9BK (in the B1 receptor preparations).

Data set [2] concerns the target T2, B2 receptor (Cavia porcellus, UniProt O70526).
T2 sequence (O70526 1-372): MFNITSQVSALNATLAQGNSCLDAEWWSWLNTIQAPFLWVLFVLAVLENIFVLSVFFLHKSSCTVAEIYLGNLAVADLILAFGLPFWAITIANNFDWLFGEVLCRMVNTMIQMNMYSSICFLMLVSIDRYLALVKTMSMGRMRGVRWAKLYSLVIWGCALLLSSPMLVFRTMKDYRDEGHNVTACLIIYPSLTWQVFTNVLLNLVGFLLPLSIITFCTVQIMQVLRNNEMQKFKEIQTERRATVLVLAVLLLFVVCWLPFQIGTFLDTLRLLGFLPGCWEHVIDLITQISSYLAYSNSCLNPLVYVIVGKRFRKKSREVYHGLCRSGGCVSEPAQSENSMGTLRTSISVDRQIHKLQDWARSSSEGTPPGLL
Put plainly: cell-based.
Source text: as §1, §2, §3

Data set [3] deals with T3, B2 receptor (Oryctolagus cuniculus, UniProt Q28642).
T3 sequence (Q28642 1-367): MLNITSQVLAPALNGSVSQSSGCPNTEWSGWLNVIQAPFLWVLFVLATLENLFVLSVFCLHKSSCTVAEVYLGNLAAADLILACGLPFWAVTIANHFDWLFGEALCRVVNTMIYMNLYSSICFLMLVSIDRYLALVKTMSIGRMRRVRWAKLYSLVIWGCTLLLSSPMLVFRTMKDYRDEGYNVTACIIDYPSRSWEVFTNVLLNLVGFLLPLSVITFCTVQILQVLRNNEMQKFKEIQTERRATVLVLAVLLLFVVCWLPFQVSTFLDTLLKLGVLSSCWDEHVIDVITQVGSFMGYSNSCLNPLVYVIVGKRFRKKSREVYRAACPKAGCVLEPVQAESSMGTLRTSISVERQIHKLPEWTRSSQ
The experiment in a line: cell-based. To be noted: residual agonistic activity at 10 μg/mL in comparison with BK.
Source text: as §1, §2, §3

In data set [4] the target is T4, human B1 receptor (Homo sapiens, UniProt P46663).
T4 sequence (P46663 1-353): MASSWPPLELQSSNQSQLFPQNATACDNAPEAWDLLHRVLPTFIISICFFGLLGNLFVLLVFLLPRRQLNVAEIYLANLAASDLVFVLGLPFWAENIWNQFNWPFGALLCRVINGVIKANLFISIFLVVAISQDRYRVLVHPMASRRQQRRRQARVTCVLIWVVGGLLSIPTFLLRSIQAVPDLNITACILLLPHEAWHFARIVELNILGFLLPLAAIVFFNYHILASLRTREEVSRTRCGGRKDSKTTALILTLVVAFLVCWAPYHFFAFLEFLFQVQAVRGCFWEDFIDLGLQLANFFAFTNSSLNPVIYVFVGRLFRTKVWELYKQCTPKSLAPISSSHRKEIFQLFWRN
Put plainly: cell-based. The note with it: for Human umbilical vein B1 receptor α^E: residual agonistic activity at 10 μg/mL.
Source text: as §1, §2, §3

The target in data set [5] is T5, human B2 receptor (Homo sapiens, UniProt P30411).
T5 construct: Helical strips of HUV were prepared according to Gobeil et al; from tissue; host or cells: human umbilical vein helical strips
T5 sequence (P30411 1-391): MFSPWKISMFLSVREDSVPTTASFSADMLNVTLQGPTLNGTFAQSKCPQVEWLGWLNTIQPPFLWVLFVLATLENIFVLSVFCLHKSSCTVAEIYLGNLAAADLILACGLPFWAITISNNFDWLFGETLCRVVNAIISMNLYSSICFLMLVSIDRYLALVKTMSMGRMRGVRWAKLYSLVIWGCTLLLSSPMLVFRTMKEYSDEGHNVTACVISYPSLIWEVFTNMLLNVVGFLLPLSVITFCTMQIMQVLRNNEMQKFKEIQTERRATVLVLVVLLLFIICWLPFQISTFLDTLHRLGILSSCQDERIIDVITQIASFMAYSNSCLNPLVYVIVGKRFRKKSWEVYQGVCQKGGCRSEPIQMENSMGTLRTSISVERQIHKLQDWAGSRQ
The experiment in a line: Human umbilical vein bioassay in presence of Lys(Leu8)desArg9BK, B2 receptor. It counts as cell-based. The note with it: vs BK, Lys(Leu8)desArg9BK 1 μmol/L present.
Source text: as §1, §2, §3

The target in data set [6] is T3, B2 receptor. The note with it: vs BK; captopril 1 μmol/L; Inactive = no detectable antagonistic effect at ≦ 10 μg/ml.
Data set [7] deals with T6, angiotensin-converting enzyme (ACE) from rabbit lungs (Oryctolagus cuniculus, UniProt P12822).
T6 sequence (P12822 34-1310): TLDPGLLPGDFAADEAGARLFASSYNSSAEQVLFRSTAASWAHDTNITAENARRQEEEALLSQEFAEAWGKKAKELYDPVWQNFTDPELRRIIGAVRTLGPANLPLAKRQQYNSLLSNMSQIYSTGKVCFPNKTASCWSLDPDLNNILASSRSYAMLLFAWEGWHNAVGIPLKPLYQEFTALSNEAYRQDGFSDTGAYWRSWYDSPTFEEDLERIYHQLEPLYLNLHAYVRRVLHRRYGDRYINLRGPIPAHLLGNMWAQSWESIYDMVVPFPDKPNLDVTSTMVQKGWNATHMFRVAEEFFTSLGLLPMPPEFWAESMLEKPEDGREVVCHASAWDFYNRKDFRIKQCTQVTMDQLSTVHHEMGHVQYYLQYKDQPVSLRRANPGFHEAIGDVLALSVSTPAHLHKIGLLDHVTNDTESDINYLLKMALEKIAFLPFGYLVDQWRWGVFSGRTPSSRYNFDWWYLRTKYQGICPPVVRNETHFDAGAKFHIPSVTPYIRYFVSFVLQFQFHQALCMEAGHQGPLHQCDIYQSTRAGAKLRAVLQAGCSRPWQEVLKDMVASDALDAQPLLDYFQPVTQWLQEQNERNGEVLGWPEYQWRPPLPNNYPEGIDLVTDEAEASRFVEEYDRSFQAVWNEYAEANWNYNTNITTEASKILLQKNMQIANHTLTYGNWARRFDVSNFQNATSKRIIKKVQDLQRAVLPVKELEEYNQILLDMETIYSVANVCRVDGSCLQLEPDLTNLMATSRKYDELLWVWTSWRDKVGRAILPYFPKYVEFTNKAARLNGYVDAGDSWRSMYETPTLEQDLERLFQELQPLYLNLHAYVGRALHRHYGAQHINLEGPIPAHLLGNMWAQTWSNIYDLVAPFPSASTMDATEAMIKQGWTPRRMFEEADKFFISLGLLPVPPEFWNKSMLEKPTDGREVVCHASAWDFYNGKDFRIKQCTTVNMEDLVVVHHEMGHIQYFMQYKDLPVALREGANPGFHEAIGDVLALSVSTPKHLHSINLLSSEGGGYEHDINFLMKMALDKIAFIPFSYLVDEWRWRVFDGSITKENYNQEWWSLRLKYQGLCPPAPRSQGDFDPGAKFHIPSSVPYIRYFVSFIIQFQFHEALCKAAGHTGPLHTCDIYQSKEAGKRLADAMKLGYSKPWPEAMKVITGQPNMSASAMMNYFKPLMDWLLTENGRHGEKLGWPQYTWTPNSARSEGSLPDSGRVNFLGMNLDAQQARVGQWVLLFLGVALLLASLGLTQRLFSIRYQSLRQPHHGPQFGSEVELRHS
To be noted: after 30 min, same conditions and enzymatic dilution; cited from earlier work.

Consider `CC[C@H](C)[C@H](NC(=O)[C@@H](Cc1ccc2ccccc2c1)NC(=O)[C@H](CO)NC(=O)[C@H](Cc1ccccc1)NC(=O)CNC(=O)[C@@H]1CCCN1C(=O)[C@@H]1CCCN1C(=O)[C@H](CCCNC(=N)N)NC(=O)[C@H](CCCCN)NC(C)=O)C(=O)O` [Compound 19, AcLys(D-βNal^7, Ile^8)desArg^9BK] (Ac-KRPPGFS[d2Nal]I-OH; C-terminus assumed), for which the “Rb.A. α^E” value in data set [1] is listed as 0. In addition, the “G.P.I. pA2” value in data set [2] (vs BK, Inactive = no detectable antagonistic effect at ≦ 10 μg/ml, F.ag. full agonist, P.ag. partial agonist) is “P.ag”. The “Rb.J.V. α^E” value in data set [3] is listed as 0.09. The “Human umbilical vein B1 receptor α^E” value in data set [4] stood at 0. In addition, in data set [5], the “Human umbilical vein B2 receptor pA2” value is “Inactive”. Further, the “Rb.J.V. pA2” value in data set [6] is on record as “Inactive”.

As for “D-Arg(Hyp^3, D-Hyp^7(trans thiophenyl), Oic^8)desArg^9BK [Compound 34, reference compound]”, the “Rb.A. pA2” value in data set [1] (apparent affinity as antagonist vs desArg9BK, antagonist applied 10 min before, Inactive = no detectable antagonistic effect at ≦ 10 μg/ml) is reported as 8.27 ± 0.14. In addition, the “Rb.A. α^E” value in data set [1] is given as 0. The “G.P.I. α^E” value in data set [2] (residual agonistic activity at 10 μg/mL in comparison with BK) was found to be 0. Besides, the “Rb.J.V. α^E” value in data set [3] amounted to 0. Further, the “Human umbilical vein B1 receptor α^E” value in data set [4] came out at 0. In addition, the “Human umbilical vein B1 receptor pA2” value in data set [4] (vs desArg9BK, HOE140 400 nmol/L present) came to 8.55 ± 0.09. Moreover, the “Human umbilical vein B2 receptor pA2” value in data set [5] is given as 5.12 ± 0.20. In data set [6], the “Rb.J.V. pA2” value was 7.52 ± 0.05.

Take RPPGFSPFR [BK]: the “Metabolism of naturally-occurring kinins by ACE” value in data set [7] is on record as “fully metabolised”.
